Structures are written as SMILES.

In experiment [1] the target is T1, p38α (Mus musculus, UniProt P47811). Description: competition with covalent DRS probe […] at […], in-gel fluorescence. Format: binding.
Experiment [2] deals with T1, p38α. The experiment can be described thus: radiometric kinase assay with GST-ATF2. Type of experiment: biochemical.

T1 sequence (P47811 2-360): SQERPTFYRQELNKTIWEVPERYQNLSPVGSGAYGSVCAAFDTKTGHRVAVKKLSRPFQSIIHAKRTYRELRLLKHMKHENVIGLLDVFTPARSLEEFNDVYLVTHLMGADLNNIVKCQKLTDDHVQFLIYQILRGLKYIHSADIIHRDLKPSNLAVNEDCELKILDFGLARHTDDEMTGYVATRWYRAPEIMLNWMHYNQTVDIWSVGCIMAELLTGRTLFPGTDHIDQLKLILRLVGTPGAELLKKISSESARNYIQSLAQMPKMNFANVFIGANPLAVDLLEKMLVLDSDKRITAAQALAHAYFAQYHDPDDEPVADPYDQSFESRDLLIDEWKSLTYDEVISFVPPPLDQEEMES

Consider `O=C(/C=C/c1ccc(O)c(O)c1)OCCc1ccccc1` [CAPE, caffeic acid phenethyl ester], for which, on p38α [1], the “competition with covalent DRS probe 3 at 200 μM, in-gel fluorescence” value is “rooperol shows the strongest inhibition, followed closely by the honey bee propolis-derived caffeic acid phenethyl ester (CAPE”.

In general, IC50 refers to the midpoint of a concentration-inhibition curve. A lower IC50 goes with inhibition by little substance. Regarding `Oc1ccc(C#CC/C=C/c2ccc(O)c(O)c2)cc1O` [rooperol], the half-maximal inhibitory concentration (IC50) against p38α [2] is 18.6 µM.

Source of the values: paper PMC3775607 (Chembiochem : a European journal of chemical biology, 2012).
